From patent publication US8507533B2, “Glucagon receptor modulators” (Pfizer Inc., priority 2011, dated 2013)

Each molecule was assayed against human glucagon receptor (Homo sapiens (Human), UniProt P47871) (assay: Glucagon cAMP Assay (Cisbio cAMP detection)). Details: CHOK1 cells stably transfected with the human glucagon receptor; block of glucagon induced cAMP production; Kb by modified Cheng-Prusoff equation.
human glucagon receptor, sequence (P47871 26-477): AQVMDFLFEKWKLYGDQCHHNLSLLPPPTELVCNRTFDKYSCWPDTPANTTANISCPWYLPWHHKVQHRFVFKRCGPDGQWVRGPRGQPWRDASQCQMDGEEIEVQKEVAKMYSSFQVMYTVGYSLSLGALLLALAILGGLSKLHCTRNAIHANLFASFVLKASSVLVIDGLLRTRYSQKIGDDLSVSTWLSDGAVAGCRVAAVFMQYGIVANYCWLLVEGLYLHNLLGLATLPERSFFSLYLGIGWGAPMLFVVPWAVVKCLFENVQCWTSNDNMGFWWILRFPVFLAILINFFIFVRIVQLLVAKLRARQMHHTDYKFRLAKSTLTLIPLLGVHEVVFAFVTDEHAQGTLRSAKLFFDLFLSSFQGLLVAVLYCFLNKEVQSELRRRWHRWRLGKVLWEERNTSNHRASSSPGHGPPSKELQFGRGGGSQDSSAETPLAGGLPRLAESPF
Assay type: cell-based
Protocol: The Cisbio cAMP detection assay is used to determine the ability of punitive glucagon antagonist to block glucagon induced cAMP production. Potential glucagon antagonists are re-suspended and diluted in 100% DMSO. Prior to use in the Glucagon cAMP assay 100×DMSO compound stocks are diluted 20× with DMEM-F12 media (Invitrogen) containing either 0.1% or 4% BSA. […] 2 μls of 5% DMSO or known glucagon antagonist are added to each plate to define the assay window. CHOK1 cells stably transfected with the human glucagon receptor are removed from culture flasks with cell dissociation buffer. Cell pellets are re-suspended, at a concentration of 8.3e^5 cells/ml in DMEM-F12 with or without 4% BSA and 200 uM IBMX. 6 μls of cell suspensions are added to the assay plates. Plates are incubated for 20 min at room temperature prior to the addition of a 100 μM challenge dose of glucagon. On a separate plate glucagon dose response curves are run to determine the EC50 of glucagon. After a 30 min room temperature incubation the reaction is terminated by the addition of lysis buffer containing the cAMP detection reagents. Plates are incubated for an additional 60 min at room temperature prior to being read on the Perkin Elmer fluorescent plate reader. Raw is converted to nM of cAMP produced based on a cAMP standard curve. Converted data is then analyzed using the Pfizer data analysis program. IC50 values are determined from the generated sigmoidal dose response curves. Kb values are calculated using a modified Cheng-Prusoff equation. N is the number of times the compound was assayed.
CCCC(Oc1ccc(-c2cnn(C)c2)cc1)c1ccc(C(=O)NCCC(=O)O)cc1 (racemic) [Example 54, (+/−)-3-(4-(1-(4-(1-methyl-1H-pyrazol-4-yl)phenoxy)butyl)benzamido)propanoic acid] showed a Kb of 3530 nM. Molecule CCCC(Oc1ccc(-c2cnn(C)c2C)cc1)c1ccc(C(=O)NCCC(=O)O)cc1 (racemic) [Example 55, (+/−)-3-(4-(1-(4-(1,5-dimethyl-1H-pyrazol-4-yl)phenoxy)butyl)benzamido)propanoic acid] has a Kb of 3720 nM. Work on CCCC(Oc1ccc(-c2cn[nH]c2)cc1)c1ccc(C(=O)NCCC(=O)O)cc1 (racemic) [Example 56, (+/−)-3-(4-(1-(4-(1H-pyrazol-4-yl)phenoxy)butyl)benzamido)propanoic acid] yielded a Kb of 4370 nM. Molecule CCCC(Oc1ccc(-c2ccnn2C)cc1)c1ccc(C(=O)NCCC(=O)O)cc1 (racemic) [Example 57, (+/−)-3-(4-(1-(4-(1-methyl-1H-pyrazol-5-yl)phenoxy)butyl)benzamido)propanoic acid] has a Kb of 6100 nM. Work on CCCC(Oc1ccc(-c2c(C)nn(C)c2C)cc1)c1ccc(C(=O)NCCC(=O)O)cc1 (racemic) [Example 58, (+/−)-3-(4-(1-(4-(1,3,5-trimethyl-1H-pyrazol-4-yl)phenoxy)butyl)benzamido)propanoic acid] yielded a Kb of 7300 nM. CCCC(Nc1ccc(-n2cc(-c3ccccc3)cn2)nc1)c1ccc(C(=O)NCCC(=O)O)cc1 (racemic) [Example 62, (+/−)-3-(4-(1-(6-(4-phenyl-1H-pyrazol-1-yl)pyridine-3-ylamino)butyl)benzamido)propanoic acid] showed a Kb of 32.2 nM. Molecule CCCC(Nc1ccc(-n2cc(F)cn2)cc1)c1ccc(C(=O)NCCC(=O)O)cc1 (racemic) [Example 63, (+/−)-3-(4-(1-(4-(4-fluoro-1H-pyrazol-1-yl)phenylamino)butyl)benzamido)propanoic acid] has a Kb of 613 nM. CC(C)CC(Nc1ccc(C(=O)NCCC(=O)O)cn1)c1ccc(-n2cc(C(F)(F)F)cn2)cc1 (racemic) [Example 64, (+/−)-3-(6-(3-methyl-1-(4-(4-(trifluoromethyl)-1H-pyrazol-1-yl)phenyl)butylamino)nicotinamido)propanoic acid] gave a Kb of 494 nM. Molecule O=C(O)CCNC(=O)c1ccc(C(CC2CC2)Oc2ccc(-n3cc(C(F)(F)F)cn3)cc2)cc1 (racemic) [Example 65, (+/−)-3-(4-(2-cyclopropyl-1-(4-(4-(trifluoromethyl)-1H-pyrazol-1-yl)phenoxy)ethyl)benzamido)propanoic acid] has a Kb of 2880 nM. Work on CCCC(Oc1ccc(-n2ccc(C(F)(F)F)n2)cc1)c1ccc(C(=O)NCCC(=O)O)cc1 (racemic) [Example 70, (+/−)-3-(4-(1-(4-(3-(trifluoromethyl)-1H-pyrazol-1-yl)phenoxy)butyl)benzamido)propanoic acid] yielded a Kb of 1910 nM. Molecule CC(C)(C)CC(Oc1ccc(-n2cc(C(F)(F)F)cn2)cc1)c1ccc(C(=O)NCCC(=O)O)cc1 (racemic) [Example 71, (+/−)-3-(4-(3,3-dimethyl-1-(4-(4-(trifluoromethyl)-1H-pyrazol-1-yl)phenoxy)butyl)benzamido)propanoic acid] has a Kb of 2120 nM. With CCCC(Oc1ccc(-n2cc(C)c(C(F)(F)F)n2)cc1)c1ccc(C(=O)NCCC(=O)O)cc1 (racemic) [Example 72, (+/−)-3-(4-(1-(4-(4-methyl-3-(trifluoromethyl)-1H-pyrazol-1-yl)phenoxy)butyl)benzamido)propanoic acid] the Kb was 2300 nM. Molecule CCCC(Oc1ccc(-n2cnc(C(F)(F)F)n2)cc1)c1ccc(C(=O)NCCC(=O)O)cc1 (racemic) [Example 73, (+/−)-3-(4-(1-(4-(3-(trifluoromethyl)-1H-1,2,4-triazol-1-yl)phenoxy)butyl)benzamido)propanoic acid] has a Kb of 2640 nM. With CCCC(Oc1ccc(-n2cc(C(F)(F)F)nc2C)cc1)c1ccc(C(=O)NCCC(=O)O)cc1 (racemic) [Example 75, (+/−)-3-(4-(1-(4-(2-methyl-4-(trifluoromethyl)-1H-imidazol-1-yl)phenoxy)butyl)benzamido)propanoic acid] the Kb was 7710 nM. Molecule CCCC(Oc1ccc(-n2cc(C(F)(F)F)cn2)cn1)c1ccc(C(=O)NCCC(=O)O)cc1 (racemic) [Example 85, (+/−)-3-(4-(1-(5-(4-(trifluoromethyl)-1H-pyrazol-1-yl)pyridine-2-yloxy)butyl)benzamido)propanoic acid] has a Kb of 4140 nM. Molecule CCCC(Oc1ccc(-n2cnc(C(F)(F)F)c2)nc1)c1ccc(C(=O)NCCC(=O)O)cc1 (racemic) [Example 87, (+/−)-3-(4-(1-(6-(4-(trifluoromethyl)-1H-imidazol-1-yl)pyridine-3-yloxy)butyl)benzamido)propanoic acid] has a Kb of 9390 nM. For CCCC(Oc1ccc(-n2cc3c(n2)CCC3)cc1)c1ccc(C(=O)NCCC(=O)O)cc1 (racemic) [Example 90, (+/−)-3-(4-(1-(4-(5,6-dihydrocyclopenta[c]pyrazol-2(4H)-yl)phenoxy)butyl)benzamido)propanoic acid], the Kb was > 2500 nM. For CCCC(Nc1ccc(-n2cc(C)nn2)cc1)c1ccc(C(=O)NCCC(=O)O)cc1 (racemic) [Example 92, (+/−)-3-(4-(1-(4-(4-methyl-1H-1,2,3-triazol-1-yl)phenylamino)butyl)benzamido)propanoic acid], the Kb was 5600 nM. For CC(C)CC(Nc1ncc(C(=O)NCCC(=O)O)cn1)c1ccc(-n2cc(C(F)(F)F)cn2)cc1 (racemic) [Example 93, (+/−)-3-(2-(3-methyl-1-(4-(4-(trifluoromethyl)-1H-pyrazol-1-yl)phenyl)butylamino)pyrimidine-5-carboxamido)propanoic acid], the Kb was 3840 nM. In the case of O=C(O)CCNC(=O)c1ccc(C(Nc2ccc(-n3cc(C(F)(F)F)cn3)nc2)C2CCCC2)cc1 (racemic) [Example 94, (+/−)-3-(4-(cyclopentyl(6-(4-(trifluoromethyl)-1H-pyrazol-1-yl)pyridine-3-ylamino)methyl)benzamido)propanoic acid], the Kb is reported as 57.5 nM. O=C(O)CCNC(=O)c1ccc(NC(c2ccc(-n3cc(C(F)(F)F)cn3)cc2)C2CCCCC2)nc1 (racemic) [Example 99] showed a Kb of 376 nM. In the case of CC(C)(C)CC(Nc1ccc(-n2cnc(C(F)(F)F)c2)nc1)c1ccc(C(=O)NCCC(=O)O)cc1 (racemic) [Example 100, (+/−)-3-(4-(3,3-dimethyl-1-(6-(4-(trifluoromethyl)-1H-imidazol-1-yl)pyridine-3-ylamino)butyl)benzamido)propanoic acid], the Kb is reported as 226 nM. Cc1cc(NC(CC(C)C)c2ccc(C(=O)NCCC(=O)O)cn2)cnc1-n1cc(C(F)(F)F)cn1 (racemic) [Example 102, (+/−)-3-(6-(3-methyl-1-(5-methyl-6-(4-(trifluoromethyl)-1H-pyrazol-1-yl)pyridin-3-ylamino)butyl)nicotinamido)propanoic acid] showed a Kb of 3540 nM. In the case of O=C(O)CCNC(=O)c1ccc(C(Nc2ccc(-n3cc(C(F)(F)F)cn3)nc2)C2CCCC2)cc1 (single isomer, unassigned) [Example 95, 3-(4-(cyclopentyl(6-(4-(trifluoromethyl)-1H-pyrazol-1-yl)pyridine-3-ylamino)methyl)benzamido)propanoic acid], the Kb is reported as 32.8 nM. With O=C(O)CCNC(=O)c1ccc(C(Nc2ccc(-n3cc(C(F)(F)F)cn3)nc2)C2CCCC2)cc1 (single isomer, unassigned) [Example 96, 3-(4-(cyclopentyl(6-(4-(trifluoromethyl)-1H-pyrazol-1-yl)pyridine-3-ylamino)methyl)benzamido)propanoic acid] the Kb was 871 nM. Molecule Cc1cc(-n2cc(C(F)(F)F)cn2)ccc1C(Nc1ccc(C(=O)NCCC(=O)O)cn1)C1CCCCC1 (single isomer, unassigned) [Example 117, 3-(6-(cyclohexyl(2-methyl-4-(4-(trifluoromethyl)-1H-pyrazol-1-yl)phenyl)methylamino)nicotinamido)propanoic acid] has a Kb of 227 nM. In the case of Cc1cc(-n2cc(C(F)(F)F)cn2)ccc1C(Nc1ccc(C(=O)NCCC(=O)O)cn1)C1CCCCC1 (single isomer, unassigned) [Example 118, 3-(6-(cyclohexyl(2-methyl-4-(4-(trifluoromethyl)-1H-pyrazol-1-yl)phenyl)methylamino)nicotinamido)propanoic acid], the Kb is reported as 1020 nM. CCCC(Nc1ccc(-n2cnc(C(F)(F)F)c2)nc1)c1ccc(C(=O)NCCC(=O)O)cc1 (single isomer, unassigned; isomer 1) [Example 10, 3-(4-(1-(6-(4-(trifluoromethyl)-1H-imidazol-1-yl)yridine-3-ylamino)butyl)benzamido)propanoic acid, Isomer 1] showed a Kb of 15500 nM. CCCC(Nc1ccc(-n2cnc(C(F)(F)F)c2)nc1)c1ccc(C(=O)NCCC(=O)O)cc1 (single isomer, unassigned; isomer 2) [Example 11, 3-(4-(1-(6-(4-(trifluoromethyl)-1H-imidazol-1-yl)yridine-3-ylamino)butyl)benzamido)propanoic acid, Isomer 2] gave a Kb of 612 nM. In the case of CCCC(Oc1ccc(-n2cc(-c3ccccc3)cn2)nc1)c1ccc(C(=O)NCCC(=O)O)cc1 (stereo not drawn) [Example 133], the Kb is reported as 75 nM.
